# In US4870210A, “Aminoguanidine derivative as anti-inflammatory agents” (American Home Products Corporation, priority 1987, dated 1989):
# Experiments:
# [1] = rat carrageenan paw edema assay; assay type: in vivo, rat (male Sprague-Dawley); conditions: po, 3 h, read-out: Oral ED50 (95% C.L.)
# Description: The compounds of the invention are further tested in the rat carrageenan paw edema assay to determine their ability to inhibit the acute inflammatory response. This assay is carried out as follows: 140-180 gm male Sprague-Dawley rats, in groups of 6 animals are injected subcutaneously in the right paw with 0.1 ml of 1% carrageenan at zero time. Mercury plethysmographic readings (ml) of the paw are made at zero time and 3 hours later. Test compounds are suspended or dissolved in 0.5% methylcellulose and given perorally 1 hour prior to carrageenan administration. The increase in paw volume (edema in ml.) produced by the carrageenan is measured. […] Unpaired Student's t-test is used to determine statistical significance.
# [2] = system: synthesis of LTB4 by rat glycogenelicited polymorphonuclear leukocytes (PMN); test: inhibition of the synthesis of LTB4 (lipoxygenase oxidation product) by rat glycogen-elicited polymorphonuclear leukocytes (PMN); assay type: cell-based, rat (female Wistar); conditions: Leukocyte, A23187 stimulated
# Description: This is especially true with respect to 5,12-diHETE, which also denoted as LTB4 [see Ford-Hitchinson, J. Roy. Soc. Med., 74, 831 (1981)]. The assay of this Example measures the ability of the compounds of the invention to inhibit the synthesis of LTB4 by rat glycogenelicited polymorphonuclear leukocytes (PMN).
# (§1) The assay is carried out as follows:
# (§2) Rat polymorphonuclear leukocytes (PMNs) are obtained from female Wistar rats (150-200 g) which receive an injection of 6% glycogen (10 ml i.p.). Rats are sacrificed 18-24 hours post injection by CO2 asphyxiation and the elicited cells are harvested by peritoneal lavage using physiological saline (0.9% NaCl). The exudate is centrifuged at 400×g for 10 minutes. The supernatant fluid is discarded and the cell pellet is resuspended in a concentration of 2.0×10^7 cells/ml in HBSS containing Ca^++ and Mg^++ and 10 μM L-cyteine.
# To 1 ml aliquots of cell suspension, test drugs or vehicle are added, then preincubated at 37° C. for 10 minutes. […] Supernatants are then analyzed by HPLC analysis on a 15 cm×4.6 mm ID Supelcosil LC-18 (Supelco)(3M) column, using a two solvent system at a flow rate of 1.4 ml total flow as follows: […]
# Injections: 150 μl of each supernatant is injected directly onto column and ^3 H arachidonic acid metabolites are monitored using an on-line radioactivity detector (Ramona, IN/US, Fairfield, NJ). […]
# [3] = system: synthesis of the arachidonic acid cyclooxygenase oxidation product TxB2; test: inhibition of the synthesis of the cyclooxygenase oxidation product TxB2 by rat polymorphonuclear leukocytes; assay type: cell-based, rat (female Wistar); conditions: Leukocyte; rat PMN, A23187 stimulated
# Description: as §2
# To 1 ml aliquots of cell suspension, test drugs or vehicle are added, then preincubated at 37° C. for 10 minutes. A23187 (1 μM) and [^3 H]-AA (3.0 μCi/ml) are then added and the samples are further incubated for 10 minutes. The reaction is terminated by centrifugation and pelleting cells. Supernatants are then analyzed by HPLC analysis on a 15 cm×4.6 mm ID Supelcosil LC-18 (Supelco)(3M) column, using a two solvent system at a flow rate of 1.4 ml total flow as follows:
# Co-chromatography with standard [^3 H] leukotriene B4 (LTB4) in medium of stimulated PMN exposed to drug is compared to that found in medium of stimulated cells exposed to no drug, generating percent inhibition.
# In this assay, the procedure of Example 3 is carried out as described. […]
# The results are calculated as in Example 3 and presented below: […]
# [4] = system: synthesis of PGE2 by murine peritoneal macrophages; test: inhibition of the synthesis of PGE2 by murine peritoneal macrophages; assay type: cell-based, mouse (CD-1); conditions: Mus musculus, Peritoneal macrophage, zymosan or TPA stimulus, RIA
# Description: (§3) The ability of the compounds of the invention to inhibit both leukotriene and prostaglandin synthesis is examined in an assay which measures the ability of the compounds of the invention to inhibit the synthesis of PGE2 and LTC4 by murine peritoneal macrophages.
# as §1
# (§4) Macrophages are removed from the peritoneal cavity of 55-57 day old CD-1 mice (killed by CO2 asphyxiation) by peritoneal lavage and centrifuged at 400×g for ten minutes. The cells are resuspended in Medium 199 and 4×10^6 cells are allowed to adhere on 35×10 mm Petri dishes for 1.5 hours at 37° C. in an atmosphere of 95% air and 5% CO2. The cell monolayers are washed and incubated overnight in Medium 199 supplemented with 10% heat inactivated bovine serum containing 1 μCi[^14 C]-arachidonic acid, or in the absence of ^14 C-arachidonic acid when the supernatant is to be assayed by radioimmunoassay (RIA). The labeled cells are then washed and incubated at 37° C. for 2 hours in Medium 199 with the prostaglandin stimuli, zymosan, or 12-o-tetradecanoyl-phorbol-13-acetate (TPA) and in the presence or absence of test compounds. Following incubation, the supernatant is removed and subjected to radioimmunoassay in order to determine the percent inhibition of prostaglandin E2 and leukotriene C4 by the test compounds.
# [5] = system: synthesis of LTC4 by murine peritoneal macrophages; test: inhibition of the synthesis of LTC4 by murine peritoneal macrophages; assay type: cell-based, mouse (CD-1); conditions: Mus musculus, Peritoneal macrophage, zymosan or TPA stimulus, RIA
# Description: as §3, §1, §4
SMILES,ED50 [1],IC50 [2],IC50 [3],IC50 [4],IC50 [5]
COc1ccc2c(c1)c(CC(=O)O)c(C)n2C(=O)c1ccc(Cl)cc1 [Indomethacin],3.7 mg/kg,,,,
CC(=O)Oc1ccccc1C(=O)O [Aspirin],145 mg/kg,,,,
"CC(=NNC(=N)N)c1cccc(OCc2ccc3ccccc3c2)c1 [Example 1, 2-[1-[3-(2-Naphthalenylmethoxy)phenyl]ethylidene]-hydrazinecarboximidamide]",,8.9 µM,11.2 µM,43 µM,33 µM
